Read-outs that look alike come from different tables or passages of the source.
Molecular target: T1, human kinase Mps-1 (Homo sapiens, UniProt P33981)
T1 construct: N-terminally GST-tagged human full length recombinant Mps-1 kinase; GST (N); purchased Invitrogen, Karslruhe, Germany PV4071
T1 sequence (P33981 1-857): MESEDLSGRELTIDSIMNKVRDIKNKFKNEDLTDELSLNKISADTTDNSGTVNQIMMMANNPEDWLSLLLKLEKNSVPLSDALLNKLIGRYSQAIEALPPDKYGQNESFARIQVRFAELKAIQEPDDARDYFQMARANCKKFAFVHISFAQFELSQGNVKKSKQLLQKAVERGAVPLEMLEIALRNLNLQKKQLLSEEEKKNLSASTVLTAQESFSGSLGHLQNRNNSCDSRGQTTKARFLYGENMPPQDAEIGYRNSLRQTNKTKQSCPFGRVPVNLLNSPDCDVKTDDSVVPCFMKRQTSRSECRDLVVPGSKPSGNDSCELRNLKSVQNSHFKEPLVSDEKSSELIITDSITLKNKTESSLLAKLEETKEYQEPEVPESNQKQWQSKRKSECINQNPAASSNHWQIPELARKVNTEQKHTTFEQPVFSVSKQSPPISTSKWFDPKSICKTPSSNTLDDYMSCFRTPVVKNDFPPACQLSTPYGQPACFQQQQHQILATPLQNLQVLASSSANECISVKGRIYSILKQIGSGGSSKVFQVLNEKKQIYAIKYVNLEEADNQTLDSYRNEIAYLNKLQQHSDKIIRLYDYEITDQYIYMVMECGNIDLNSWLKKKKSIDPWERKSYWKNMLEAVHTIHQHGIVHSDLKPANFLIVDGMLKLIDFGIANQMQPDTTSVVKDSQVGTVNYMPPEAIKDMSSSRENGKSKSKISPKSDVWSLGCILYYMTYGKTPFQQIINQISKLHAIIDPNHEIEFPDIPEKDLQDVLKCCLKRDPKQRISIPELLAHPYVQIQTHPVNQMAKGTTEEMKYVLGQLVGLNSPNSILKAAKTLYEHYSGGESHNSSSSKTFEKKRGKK
Assay: Mps-1 kinase assay (TR-FRET)
Format: biochemical
Conditions: N-terminally GST-tagged human full length recombinant Mps-1, 10 μM ATP, 1 μM biotinylated peptide substrate, 60 min at 22° C.

Row | IC50 (read-out: Mps1 IC50) [nM] | Structure (SMILES) | IC50 (Mps1 IC50 [nM]) [nM]
1 | 17.2 | CS(=O)(=O)CCNc1nccn2c(-c3ccc(C(=O)NC4CC4)cc3)cnc12 [Example 4-1, N-cyclopropyl-4-(8-{[2-(methylsulfonyl)ethyl]amino}imidazo[1,2-a]pyrazin-3-yl)benzamide] | 
2 |  | Cc1cc(-c2cnc3c(NCc4cccs4)nccn23)ccc1C(=O)NC1CC1 [Example 7-102, N-cyclopropyl-2-methyl-4-{8-[(thiophen-2-ylmethyl)amino]imi-dazo[1,2-a]pyrazin-3-yl}benzamide] | 18.7
3 |  | NS(=O)(=O)CCNc1nccn2c(-c3ccc(C(=O)NC4CC4)cc3)cnc12 [Example 7-32, N-cyclopropyl-4-{8-[(2-sulfamoylethyl)amino]imi-dazo[1,2-a]pyrazin-3-yl}benzamide] | 57.2
4 |  | Cc1cc(-c2cnc3c(NCc4ccn(C)n4)nccn23)ccc1C(=O)NC1CC1 [Example 7-119, N-cyclopropyl-2-methyl-4-(8-{[(1-methyl-1H-pyrazol-3-yl)methyl]amino}imi-dazo[1,2-a]pyrazin-3-yl)benzamide] | 298
5 | 1260 | CN(C)CCCNc1nccn2c(-c3ccc(C(=O)NC4CC4)cc3)cnc12 [Example 7-6, N-cyclopropyl-4-(8-{[3-(dimethylamino)propyl]ami-nono}imidazo[1,2-a]pyrazin-3-yl)benzamide] | 
6 |  | CCOC(C)CNc1nccn2c(-c3ccc(C(=O)NC4CC4)c(Cl)c3)cnc12 (stereo not drawn) [Example 7-63, 2-chloro-N-cyclopropyl-4-{8-[(2-ethoxypropyl)amino]imi-dazo[1,2-a]pyrazin-3-yl}benzamide] | 409
7 | 278 | Cc1cc(-c2cnc3c(NCCCS(C)(=O)=O)nccn23)ccc1C(=O)NC1CC1 [Example 5-1, N-cyclopropyl-2-methyl-4-(8-{[3-(methylsulfonyl)propyl]amino}imidazo[1,2-a]pyrazin-3-yl)benzamide] | 
8 | 387 | O=C(NC1CC1)c1ccc(-c2cnc3c(NCc4ccncc4)nccn23)cc1Cl [Example 7-49, 2-chloro-N-cyclopropyl-4-{8-[(pyridin-4-ylmethyl)amino]imidazo[1,2-a]pyrazin-3-yl}benzamide] | 
9 |  | N#CCCNc1nccn2c(-c3ccc(C(=O)NC4CC4)c(Cl)c3)cnc12 [Example 7-52, 2-chloro-4-{8-[(2-cyanoethyl)amino]imi-dazo[1,2-a]pyrazin-3-yl}-N-cyclopropylbenzamide] | 272
10 |  | Cn1ccc(CNc2nccn3c(-c4ccc(C(=O)NC5CC5)c(Cl)c4)cnc23)n1 [Example 7-60, 2-chloro-N-cyclopropyl-4-(8-{[(1-methyl-1H-pyrazol-3-yl)methyl]amino}imi-dazo[1,2-a]pyrazin-3-yl)benzamide] | 767
11 |  | CCOC(C)CNc1nccn2c(-c3ccc(C(=O)NC4CC4)c(O)c3)cnc12 (stereo not drawn) [Example 7-86, N-cyclopropyl-4-{8-[(2-ethoxypropyl)amino]imi-dazo[1,2-a]pyrazin-3-yl}-2-hydroxybenzamide] | 268
12 | 421 | COc1cc(C(=O)NC2CC2)ccc1-c1cnc2c(NCCCN)nccn12 [Example 3-4, 4-{8-[(3-Aminopropyl)amino]imidazo[1,2-a]pyrazin-3-yl}-N-cyclopropyl-3-methoxybenzamide] | 
13 |  | O=C(NC1CC1)c1ccc(-c2cnc3c(NCCCCO)nccn23)cc1Cl [Example 7-39, 2-chloro-N-cyclopropyl-4-{8-[(4-hydroxybutyl)amino]imi-dazo[1,2-a]pyrazin-3-yl}benzamide] | 239
14 |  | NC(=O)CCNc1nccn2c(-c3ccc(C(=O)NC4CC4)c(Cl)c3)cnc12 [Example 7-54, 4-{8-[(3-amino-3-oxopropyl)amino]imi-dazo[1,2-a]pyrazin-3-yl}-2-chloro-N-cyclopropylbenzamide] | 4870
15 |  | Cc1cc(-c2cnc3c(NCCCN4CCCC4=O)nccn23)ccc1C(=O)NC1CC1 [Example 7-95, N-cyclopropyl-2-methyl-4-(8-{[3-(2-oxopyrrolidin-1-yl)propyl]amino}imi-dazo[1,2-a]pyrazin-3-yl)benzamide] | 562
16 |  | O=C(NC1CC1)c1ccc(-c2cnc3c(NCc4ccc(Cl)s4)nccn23)cc1O [Example 7-88, 4-(8-{[(5-chlorothiophen-2-yl)methyl]amino}imi-dazo[1,2-a]pyrazin-3-yl)-N-cyclopropyl-2-hydroxybenzamide] | 91.3
17 | 196 | Cc1cc(-c2cnc3c(NCCCNC(=O)OC(C)(C)C)nccn23)ccc1C(=O)NC1CC1 [Example 7-117, tert-butyl [3-({3-[4-(cyclopropylcarbamoyl)-3-methylphenyl]imidazo[1,2-a]pyrazin-8-yl}amino)propyl]carbamate] | 

Row | IC50 (read-out: Mps1 IC50) [nM] | Structure (SMILES) | IC50 (Mps1 IC50 [nM]) [nM]
18 |  | CC(C)(O)CNc1nccn2c(-c3ccc(C(=O)NC4CC4)c(Cl)c3)cnc12 [Example 7-64, 2-chloro-N-cyclopropyl-4-{8-[(2-hydroxy-2-methylpropyl)amino]imi-dazo[1,2-a]pyrazin-3-yl}benzamide] | 538
19 |  | CC(C)(C)CNc1nccn2c(-c3ccc(C(=O)NC4CC4)cc3)cnc12 [Example 7-20, N-cyclopropyl-4-{8-[(2,2-dimethylpropyl)amino]imi-dazo[1,2-a]pyrazin-3-yl}benzamide] | 30.2
20 |  | Cc1cc(-c2cnc3c(NCC(F)(F)F)nccn23)ccc1C(=O)NC1CC1 [Example 7-100] | 217
21 | 22.5 | CCCCCNc1nccn2c(-c3ccc(C(=O)NC4CC4)cc3)cnc12 [Example 7-1, N-cyclopropyl-4-[8-(pentylamino)imidazo[1,2-a]pyrazin-3-yl]benzamide] | 
22 | 34.1 | Cc1cc(-c2cnc3c(NCc4ccccc4)nccn23)ccc1C(=O)NC1CC1 [Example 7-101, 4-[8-(benzylamino)imidazo[1,2-a]pyrazin-3-yl]-N-cyclopropyl-2-methylbenzamide] | 
23 | 28.4 | O=C(NC1CC1)c1ccc(-c2cnc3c(NCc4ccc5c(c4)OCO5)nccn23)cc1 [Example 7-18, 4-{8-[(1,3-benzodioxol-5-ylmethyl)amino]imidazo[1,2-a]pyrazin-3-yl}-N-cyclopropylbenzamide] | 
24 |  | O=C(NC1CC1)c1ccc(-c2cnc3c(NCCO)nccn23)cc1O [Example 7-70, N-cyclopropyl-2-hydroxy-4-{8-[(2-hydroxyethyl)amino]imi-dazo[1,2-a]pyrazin-3-yl}benzamide] | 414
25 |  | COCCCNc1nccn2c(-c3ccc(C(=O)NC4CC4)c(C)c3)cnc12 [Example 7-116, N-cyclopropyl-4-{8-[(3-methoxypropyl)amino]imi-dazo[1,2-a]pyrazin-3-yl}-2-methylbenzamide] | 141
26 |  | O=C(NC1CC1)c1ccc(-c2cnc3c(NCc4cccc(F)c4)nccn23)cc1Cl [Example 7-33, 2-chloro-N-cyclopropyl-4-{8-[(3-fluorobenzyl)amino]imi-dazo[1,2-a]pyrazin-3-yl}benzamide] | 200
27 | 17000 | CCNc1nccn2c(-c3ccc(C(=O)NC4CC4)c(Cl)c3)cnc12 [Example 7-42, 2-chloro-N-cyclopropyl-4-[8-(ethylamino)imidazo[1,2-a]pyrazin-3-yl]benzamide] | 
28 |  | Cc1cc(-c2cnc3c(NCCCN4CCOCC4)nccn23)ccc1C(=O)NC1CC1 [Example 7-92, N-cyclopropyl-2-methyl-4-(8-{[3-(morpholin-4-yl)propyl]amino}imi-dazo[1,2-a]pyrazin-3-yl)benzamide] | 389
29 |  | O=C(NC1CC1)c1ccc(-c2cnc3c(NCc4ccco4)nccn23)cc1Cl [Example 7-50, 2-chloro-N-cyclopropyl-4-{8-[(furan-2-ylmethyl)amino]imi-dazo[1,2-a]pyrazin-3-yl}benzamide] | 209
30 |  | O=C(NC1CC1)c1ccc(-c2cnc3c(NCc4ccc(Cl)s4)nccn23)cc1Cl [Example 7-65, 2-chloro-4-(8-{[(5-chlorothiophen-2-yl)methyl]amino}imi-dazo[1,2-a]pyrazin-3-yl)-N-cyclopropylbenzamide] | 25
31 |  | Cc1cc(-c2cnc3c(NCc4c(F)cccc4F)nccn23)ccc1C(=O)NC1CC1 [Example 7-127, N-cyclopropyl-4-{8-[(2,6-difluorobenzyl)amino]imi-dazo[1,2-a]pyrazin-3-yl}-2-methylbenzamide] | 47.1
32 | 103 | COC(=O)CCCNc1nccn2c(-c3ccc(C(=O)NC4CC4)cc3)cnc12 [Example 4-5, methyl 4-({3-[4-(cyclopropylcarbamoyl)phen-yl]imidazo[1,2-a]pyrazin-8-yl}amino)butanoate] | 
33 |  | Cc1cc(-c2cnc3c(NCC4CCCCO4)nccn23)ccc1C(=O)NC1CC1 (stereo not drawn) [Example 7-124, N-cyclopropyl-2-methyl-4-{8-[(tetrahydro-2H-pyran-2-ylmethyl)amino]imi-dazo[1,2-a]pyrazin-3-yl}benzamide] | 80.8
